Laboratory results reported in patent US20210308034A1, “PREBIOTIC COMPOSITIONS AND METHODS FOR MAINTAINING A HEALTHY SKIN MICROBIOTA” (KIMBERLY-CLARK WORLDWIDE, INC., priority 2018, published 2021).

Experiments:
Format in all cases: cell-based
[1] = tested on: Staphylococcus epidermidis (ATCC 14990); experiment: Carbohydrate Screening Test Method (Biolog phenotype microarray), Bacteria Code I; settings: Commensal; carbon microarray plate, OD 600 nm, 36 hr, 33° C.; positive = more than 0.05 OD units above zero; blank cell = not utilized
Excerpt: (§1) After creating desired ratios of various commensal skin bacteria in a healthy skin microbiome, 188 different carbohydrate sources were screened as the next step in determining potential prospects for skin microbiota balancing agents. The screening process was set up to determine which carbohydrate sources promoted commensal and/or pathogenic bacteria as well as to obtain individual and combinations of carbohydrate sources that could serve as microbiota balancing agents that can support or maintain the healthy proportions of commensal skin bacteria of Corynebacterium, Staphylococcus, and Micrococcus. The screening was conducted utilizing Biolog phenotype microarray plates (Hayward, Calif.). Table 1 provides a coded list of the commensal and pathogenic skin bacteria that the carbohydrates were screened against.
Table 2 provides the results of screening various carbohydrate sources against the commensal and pathogenic bacteria codes listed in Table 1. The Bacteria Codes B, D, E, I, and J are commensal bacteria and are shaded in Table 2 for references purposes. The bacteria codes were each placed in a carbon microarray plate and screened through the Carbohydrate Screening Test Method, as described in the Test Methods section herein. If a particular bacteria code utilized a specific carbohydrate source as described in the Carbohydrate Screening Test Method, then the corresponding cell in Table 2 was marked with a Y (short for “Yes”). […] Many of the carbohydrate sources were utilized by both commensal and pathogenic bacteria, and as such, would not provide an advantage for selective growth of the commensal bacteria. However, some of the carbohydrate sources were only used by commensal bacteria and were identified for further testing as described herein.
(§2) The study employed 10 representative skin bacteria; Staphylococcus epidermidis ATCC 14990, Staphylococcus epidermidis M23864:W2, Staphylococcus aureus ATCC 6538, Staphylococcus aureus ATCC 25904 (Newman), Pseudomonas aeruginosa ATCC 9027, Micrococcus luteus ATCC […], Micrococcus luteus SK58, Klebsiella pneumoniae ATCC BAA-2146, Corynebacterium amycolatum SK46, and Corynebacterium minutissimum ATCC 23348. Cultures were started from freezer bead stocks by placing a single bead into 20 mL of tryptic soy broth (TSB) for all organisms except C. amycolatum SK46 and C. minutissimum ATCC 23348, which were placed into brain heart infusion (BHI) broth. Cultures were grown for about 24 hr at 37° C. except M. luteus ATCC 49732 and M. luteus SK58, which were grown at 30° C. A passage of the culture was made using a sterile swab and streaked onto two M9*2 agar plates to prepare the incubated culture for the phenotype microarray pate according to Table 4. Plates were incubated for about 24 hr at 37° C. except for M. luteus ATCC 49732 and M. luteus SK58, which were incubated at 30° C. for 24 hr.
(§3) All cultures were harvested and washed before inoculation into the carbon microarray plate (BiOLOG, Hayward Calif.), with Biolog Plates PM1 and PM2 each having a source definition of Carbon. The bacteria on the M9*2 agar was suspended via agitation with an inoculating loop in 1 mL of M9*1 media for collection in a 1.7 mL micro centrifuge tube, as noted in Table 4. The bacteria was suspended again in M9*1 media, agitated, and collected into the same 1.7 mL microcentrifuge tube used in the previous step. The tube was centrifuged for 5 minutes at 4,000×G, supernatant decanted, the pellet was resuspended in 1 mL of M9*1 media, and vortex. This washing process was repeated for a total of 4 times.
A tenfold dilution in M9*1 media was performed using 1 mL of the washed bacterial culture. Of the tenfold dilution 200 μL was placed in an untreated 96-well plate (Falcon, Pasadena Tx.) for an initial optical density (OD) reading at a wavelength of 600 nm. The OD was used to correlate to colony forming units (CFU) per milliliter by using linear regression lines for each organism. […]

[2] = tested on: Staphylococcus epidermidis (M23864:W2); experiment: Carbohydrate Screening Test Method (Biolog phenotype microarray), Bacteria Code J; settings: Commensal; carbon microarray plate, OD 600 nm, 36 hr, 33° C.; positive = more than 0.05 OD units above zero; blank cell = not utilized
Excerpt: as §1
(§4) The Bacteria Codes B, D, E, I, and J are commensal bacteria and are shaded in Table 2 for references purposes. The bacteria codes were each placed in a carbon microarray plate and screened through the Carbohydrate Screening Test Method, as described in the Test Methods section herein. If a particular bacteria code utilized a specific carbohydrate source as described in the Carbohydrate Screening Test Method, then the corresponding cell in Table 2 was marked with a Y (short for “Yes”).
To do so, the respective microarray data for the 79 carbohydrate sources was run through the GrowthRates 2.1 program to obtain growth parameters, such as growth rates and maximum yield data as described by the Belingham Research Institute, Hall, B. G., H. Acar and M. Barlow. 2014 Growth Rates Made Easy. Mol. Biol. Evol. 31:232-238 doi:10.1093/molbev/mst197. The max yield parameters generated were utilized to calculate ratios of tested commensal bacteria. The ratios calculated were compared back to the desired ratios identified above (Corynebacterium to Staphylococcus of 1.3, Corynebacterium to Micrococcus of 1.4, and Staphylococcus to Micrococcus of 1.1).
As an example of this methodology used to calculate the commensal bacteria ratios and the difference between the calculated ratios and the desired ratios, an example code from Table 3 will be described. […] The max yields were then used to calculate ratios the bacteria would reach in a co-culture.

[3] = tested on: Corynebacterium jeikum (ATCC 33033); experiment: Carbohydrate Screening Test Method (Biolog phenotype microarray), Bacteria Code B; settings: Commensal; carbon microarray plate, OD 600 nm, 36 hr, 33° C.; positive = more than 0.05 OD units above zero; blank cell = not utilized
Method in brief: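 Strain from M9*2 agar was suspended in M9*1 medium, washed and inoculated into Biolog PM1/PM2 carbon plates. Carbohydrate use was scored yes/no, and growth rate and maximum yield were derived with GrowthRates 2.1, with max yields used for commensal ratios.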

[4] = tested on: Micrococcus luteus (SK58); experiment: Carbohydrate Screening Test Method (Biolog phenotype microarray), Bacteria Code E; settings: Commensal; carbon microarray plate, OD 600 nm, 36 hr, 33° C.; positive = more than 0.05 OD units above zero; blank cell = not utilized
Method in brief: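 Each commensal strain grown in Biolog carbon phenotype microarray plates with single carbohydrate sources. Growth curves fitted with GrowthRates 2.1 to give growth rate and maximum yield. Max yields used to calculate predicted co-culture ratios between Corynebacterium, Staphylococcus and Micrococcus, compared with desired ratios of 1.3, 1.4 and 1.1.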

[5] = tested on: Klebsiella pneumoniae (ATCC BAA-2146); settings: Pathogenic; carbon microarray plate, OD 600 nm, 36 hr, 33° C.; positive = more than 0.05 OD units above zero; blank cell = not utilized
[6] = tested on: commensal and pathogenic skin bacteria; experiment: Carbohydrate Screening Test Method, all bacteria codes tested; settings: ten bacteria codes of Table 1
Excerpt: as §1, §4, §2, §3
A tenfold dilution in M9*1 media was performed using 1 mL of the washed bacterial culture.

[7] = tested on: Pseudomonas aeruginosa (ATCC 9027); settings: Pathogenic; carbon microarray plate, OD 600 nm, 36 hr, 33° C.; positive = more than 0.05 OD units above zero; blank cell = not utilized
Excerpt: as §1, §4, §2, §3
A tenfold dilution in M9*1 media was performed using 1 mL of the washed bacterial culture. Of the tenfold dilution 200 μL was placed in an untreated 96-well plate (Falcon, Pasadena Tx.) for an initial optical density (OD) reading at a wavelength of 600 nm. The OD was used to correlate to colony forming units (CFU) per milliliter by using linear regression lines for each organism.

Row | Molecule | Carbohydrate Screening Results, Bacteria Code I [1] | utilization by the bacteria codes tested [6] | further results
1 | NCCCC(=O)O [γ-Amino Butyric Acid] | Y | – | Carbohydrate Screening Results, Bacteria Code J [2]: Y
2 | O=C(O)C[C@@H](O)C(=O)O [D-Malic Acid] | Y | – | Carbohydrate Screening Results, Bacteria Code B [3]: Y; Carbohydrate Screening Results, Bacteria Code E [4]: Y
3 | OC[C@H]1O[C@@H](O[C@H]2[C@H](O)[C@@H](O)[C@@H](O)O[C@@H]2CO)[C@H](O)[C@@H](O)[C@H]1O [α-D-Lactose] | Y | – | Carbohydrate Screening Results, Bacteria Code B [3]: Y; Carbohydrate Screening Results, Bacteria Code E [4]: Y; Carbohydrate Screening Results, Bacteria Code J [2]: Y
4 | COC(=O)C(C)=O [Methyl Pyruvate] | Y | – | Carbohydrate Screening Results, Bacteria Code B [3]: Y; Carbohydrate Screening Results, Bacteria Code J [2]: Y
5 | Tween 80 | Y | – | Carbohydrate Screening Results, Bacteria Code B [3]: Y; Carbohydrate Screening Results, Bacteria Code E [4]: Y
6 | CC(=O)C(C)O (stereo not drawn) [3-Hydroxy 2-Butanone] | Y | – | Carbohydrate Screening Results, Bacteria Code J [2]: Y
7 | OC[C@H]1O[C@@H](O[C@H]2[C@H](O)[C@@H](O)[C@H](O)O[C@@H]2CO)[C@H](O)[C@@H](O)[C@@H]1O [D-Cellobiose] | Y | – | Carbohydrate Screening Results, Bacteria Code B [3]: Y; Carbohydrate Screening Results, Bacteria Code C [5]: Y; Carbohydrate Screening Results, Bacteria Code E [4]: Y
8 | CC(O)C(C)O (stereo not drawn) [2,3-Butanediol] | Y | – | Carbohydrate Screening Results, Bacteria Code J [2]: Y
9 | O=C(O)CC(O)C(=O)O (racemic) [D,L-Malic Acid] | Y | – | Carbohydrate Screening Results, Bacteria Code B [3]: Y; Carbohydrate Screening Results, Bacteria Code E [4]: Y; Carbohydrate Screening Results, Bacteria Code J [2]: Y
10 | Pectin | Y | – | Carbohydrate Screening Results, Bacteria Code J [2]: Y
11 | N[C@@H](Cc1ccccc1)C(=O)O [L-Phenylalanine] | – | not utilized by any of the bacteria | –
12 | O=C(CO)[C@@H](O[C@H]1O[C@H](CO)[C@@H](O)[C@H](O)[C@H]1O)[C@H](O)[C@H](O)CO [Turanose] | Y | – | –
13 | 2,3-Butanone | – | not utilized by any of the bacteria | –
14 | Tween 20 | – | not utilized by any of the bacteria | –
15 | CO[C@H]1O[C@H](CO)[C@@H](O)[C@H](O)[C@H]1O [α-Methyl-D-Glucoside] | – | not utilized by any of the bacteria | –
16 | O=C[C@H](O)[C@H](O)[C@H](O)CO [D-Ribose] | – | not utilized by any of the bacteria | –
17 | C[C@@H](O)[C@H](O)[C@H](O)[C@@H](O)C=O [D-Fucose] | – | not utilized by any of the bacteria | –
18 | O=CC[C@H](O)[C@H](O)CO [2-Deoxy-D-Ribose] | – | not utilized by any of the bacteria | –
19 | Inulin | Y | – | Carbohydrate Screening Results, Bacteria Code J [2]: Y

Row | Molecule | Carbohydrate Screening Results, Bacteria Code I [1] | utilization by the bacteria codes tested [6] | further results
20 | OC[C@H](O)C(O)[C@@H](O)CO [L-Arabitol] | – | not utilized by any of the bacteria | –
21 | C/C=C/C=C/C(=O)O [Sorbic Acid] | – | not utilized by any of the bacteria | –
22 | O=C(O)c1ccccc1O [2-Hydroxy Benzoic Acid] | – | not utilized by any of the bacteria | –
23 | CC(O)CC(=O)O (stereo not drawn) [β-Hydroxy Butyric Acid] | Y | – | Carbohydrate Screening Results, Bacteria Code F [7]: Y
24 | N[C@H](CO)C(=O)O [D-Serine] | – | not utilized by any of the bacteria | –
25 | O=C(O)CCCCCCCCC(=O)O [Sebacic Acid] | Y | – | Carbohydrate Screening Results, Bacteria Code J [2]: Y
26 | O=C(CO)[C@@H](O)[C@@H](O)[C@H](O)CO [D-Tagatose] | – | not utilized by any of the bacteria | –
27 | OC[C@@H](O)[C@@H](O)CO [i-Erythritol] | – | not utilized by any of the bacteria | –
28 | O=C(O)[C@@H](O)[C@H](O)C(=O)O [D-Tartaric Acid] | – | not utilized by any of the bacteria | –
29 | OC[C@H]1O[C@@H](O)[C@H](O)[C@H](O)[C@@H]1O [β-D-Allose] | – | not utilized by any of the bacteria | –
30 | Glycogen | – | not utilized by any of the bacteria | –
31 | NCC(=O)O [Glycine] | – | not utilized by any of the bacteria | –
32 | COC(=O)CCC(=O)O [Mono Methyl Succinate] | Y | – | Carbohydrate Screening Results, Bacteria Code B [3]: Y; Carbohydrate Screening Results, Bacteria Code E [4]: Y
33 | N[C@@H](CCO)C(=O)O [L-Homoserine] | Y | – | –
34 | O=C(O)C(=O)O [Oxalic Acid] | Y | – | Carbohydrate Screening Results, Bacteria Code J [2]: Y
35 | OC[C@H]1O[C@@H]2O[C@H]3[C@H](O)[C@@H](O)[C@@H](O[C@H]4[C@H](O)[C@@H](O)[C@@H](O[C@H]5[C@H](O)[C@@H](O)[C@@H](O[C@H]6[C@H](O)[C@@H](O)[C@@H](O[C@H]7[C@H](O)[C@@H](O)[C@@H](O[C@H]1[C@H](O)[C@H]2O)O[C@@H]7CO)O[C@@H]6CO)O[C@@H]5CO)O[C@@H]4CO)O[C@@H]3CO [α-Cyclodextrin] | Y | – | Carbohydrate Screening Results, Bacteria Code J [2]: Y
36 | COC1OCC(O)C(O)C1O [β-Methyl-D-Xyloside] | – | not utilized by any of the bacteria | –
37 | CC(=O)N[C@H]1[C@H]([C@H](O)[C@H](O)CO)OC(O)(C(=O)O)C[C@@H]1O (stereo partly drawn) [N-Acetyl-Neuraminic Acid] | – | not utilized by any of the bacteria | –
